{"source": "patent US20100261734A1", "about": "“Methods of Treating Bladder Dysfunction Using Netupitant” (Helsinn Healthcare S.A., priority 2009, published 2010)", "key": {"[1]": {"tested_on": "acetic acid (AA)-induced overactive bladder (OAB)", "assay": "Cystometric parameters in acetic acid (AA)-induced overactive bladder (OAB) in anesthetized guinea-pigs", "format": "in vivo", "conditions": "for Maximal ICI (intercontraction interval) increase, % of variation from basal values: 0.2% AA bladder infusion, anesthetized guinea-pigs; for Effect on ICI (intercontraction interval): from 10 min up to 60 min post-administration, 0.2% AA", "source_text": "The effect of netupitant (N) was studied on cystometric parameters in acetic acid (AA)-induced overactive bladder (OAB) in anesthetized guinea-pigs. Results were compared with those obtained with a control and L-733,060 (L), another potent and selective NK1 receptor antagonist. Adult female guinea-pigs were anesthetized with urethane, and the jugular vein and urinary bladder were catheterized for drug administration and intravesical pressure recording, respectively. The urinary bladder was continuously infused with either saline or 0.2% AA. After 30 min stabilization, N, L or their vehicle (glucose 5%) were administered in separate animals (n=10 per group). Intercontraction interval (ICI, sec), and amplitude of micturition (AM, mmHg) were analyzed at 10, 20, 40 and 60 min post administration. For each dose, maximal effects were expressed as % of variation from respective basal values. ED50% (doses inducing a 50% increase in ICI) were calculated using linear regressions."}, "[2]": {"assay": "Pharmacokinetic profile of netupitant in humans after a single oral dose", "format": "in vivo", "conditions": "for Cl/F / Kel / tlag / AUC(0-inf) / AUC(0-t) / Cmax / Tmax / half-life / Vd/F: healthy volunteers, mean, N = 4; for AUC(0-inf) / AUC(0-t) / Cmax / Tmax / half-life / Vd/F: human, plasma; for Vd/F: read-out: Vz/F", "description": "The pharmacokinetic profile of netupitant (N) in humans was examined in a randomised, double-blind, placebo controlled study comprising 5 dose groups (10, 30, 100, 300 and 450 mg) with 6 subjects in each group, of whom four received netupitant and two received placebo."}}, "note": "Read-outs that look alike come from different tables or passages of the source.", "data": [{"compound": "FC(F)(F)c1cc(CO[C@H]2CCCN[C@H]2c2ccccc2)cc(C(F)(F)F)c1", "note": "[L-733,060, reference compound]", "values": [{"measurement": "Maximal ICI (intercontraction interval) increase, % of variation from basal values", "setting": "[1]; 3 mg/kg i.v.", "value": "+40±10%"}, {"measurement": "Maximal ICI (intercontraction interval) increase, % of variation from basal values", "setting": "[1]; 10 mg/kg i.v.", "value": "+76±11%"}, {"measurement": "Maximal effect on amplitude of micturition (AM), % of variation from basal values", "setting": "[1]; 10 mg/kg, 10 min after administration", "value": "−28±5", "unit": "%"}, {"measurement": "Effect on amplitude of micturition (AM)", "setting": "[1]; 10 mg/kg, p<0.05 versus basal values", "value": "decreased significantly AM"}, {"measurement": "Effect on ICI (intercontraction interval)", "setting": "[1]", "value": "dose-dependently and significantly increased ICI"}, {"measurement": "ED50% (dose inducing a 50% increase in ICI)", "setting": "[1]; i.v., calculated using linear regressions", "value": 5.13, "unit": "mg/kg"}]}, {"compound": "Cc1ccccc1-c1cc(N2CCN(C)CC2)ncc1N(C)C(=O)C(C)(C)c1cc(C(F)(F)F)cc(C(F)(F)F)c1", "note": "[netupitant, 2-[3,5-bis(trifluoromethyl)phenyl]-N,2-dimethyl-N-[4-(2-methylphenyl)-6-(4-methylpiperazin-1-yl)pyridin-3-yl]propanamide]", "values": [{"measurement": "Maximal ICI (intercontraction interval) increase, % of variation from basal values", "setting": "[1]; 0.1 mg/kg i.v.", "value": "+51±15%"}, {"measurement": "Maximal ICI (intercontraction interval) increase, % of variation from basal values", "setting": "[1]; 0.3 mg/kg i.v.", "value": "+44±8%"}, {"measurement": "Maximal ICI (intercontraction interval) increase, % of variation from basal values", "setting": "[1]; 1 mg/kg i.v.", "value": "+69±8%"}, {"measurement": "Maximal effect on amplitude of micturition (AM), % of variation from basal values", "setting": "[1]; 1 mg/kg, 20 min after administration", "value": "−13±6", "unit": "%"}, {"measurement": "Maximal ICI (intercontraction interval) increase, % of variation from basal values", "setting": "[1]; 3 mg/kg i.v.", "value": "+96±20%"}, {"measurement": "ED50", "setting": "[1]; Cavia porcellus, iv, calculated using linear regressions, read-out: ED50% (dose inducing a 50% increase in ICI)", "value": 0.62, "unit": "mg/kg"}, {"measurement": "Potency relative to L in view of ED50% values", "setting": "[1]; N versus L", "value": "about 16 fold"}, {"measurement": "Effect on amplitude of micturition (AM)", "setting": "[1]; doses 0.1-3 mg/kg", "value": "devoid of significant effect on AM"}, {"measurement": "Effect on ICI (intercontraction interval)", "setting": "[1]", "value": "dose-dependently and significantly increased ICI"}, {"measurement": "Cl/F", "setting": "[2]; 10 mg oral", "value": 44.0, "unit": "L/h"}, {"measurement": "Kel", "setting": "[2]; 10 mg oral", "value": 0.0435, "unit": "h⁻¹"}, {"measurement": "tlag", "setting": "[2]; 10 mg oral", "value": 1.88, "unit": "h"}, {"measurement": "Cl/F", "setting": "[2]; 30 mg oral", "value": 35.5, "unit": "L/h"}, {"measurement": "Kel", "setting": "[2]; 30 mg oral", "value": 0.027, "unit": "h⁻¹"}, {"measurement": "tlag", "setting": "[2]; 30 mg oral", "value": 1.75, "unit": "h"}, {"measurement": "Cl/F", "setting": "[2]; 100 mg oral", "value": 22.1, "unit": "L/h"}, {"measurement": "Kel", "setting": "[2]; 100 mg oral", "value": 0.0139, "unit": "h⁻¹"}, {"measurement": "tlag", "setting": "[2]; 100 mg oral", "value": 1.88, "unit": "h"}, {"measurement": "Cl/F", "setting": "[2]; 300 mg oral", "value": 12.6, "unit": "L/h"}, {"measurement": "Kel", "setting": "[2]; 300 mg oral", "value": 0.0154, "unit": "h⁻¹"}, {"measurement": "tlag", "setting": "[2]; 300 mg oral", "value": 0.81, "unit": "h"}, {"measurement": "Cl/F", "setting": "[2]; 450 mg oral", "value": 10.6, "unit": "L/h"}, {"measurement": "Kel", "setting": "[2]; 450 mg oral", "value": 0.0124, "unit": "h⁻¹"}, {"measurement": "tlag", "setting": "[2]; 450 mg oral", "value": 1.26, "unit": "h"}, {"measurement": "AUC(0-inf)", "setting": "[2]; 10 mg oral", "value": 233, "unit": "ng·h/mL"}, {"measurement": "AUC(0-t)", "setting": "[2]; 10 mg oral", "value": 140, "unit": "ng·h/mL"}, {"measurement": "Cmax", "setting": "[2]; 10 mg oral", "value": 8.76, "unit": "ng/mL"}, {"measurement": "Tmax", "setting": "[2]; 10 mg oral", "value": 5.75, "unit": "h"}, {"measurement": "half-life", "setting": "[2]; 10 mg oral", "value": 16, "unit": "h"}, {"measurement": "Vd/F", "setting": "[2]; 10 mg oral", "value": 1010, "unit": "L"}, {"measurement": "AUC(0-inf)", "setting": "[2]; 30 mg oral", "value": 995, "unit": "ng·h/mL"}, {"measurement": "AUC(0-t)", "setting": "[2]; 30 mg oral", "value": 870, "unit": "ng·h/mL"}, {"measurement": "Cmax", "setting": "[2]; 30 mg oral", "value": 36, "unit": "ng/mL"}, {"measurement": "Tmax", "setting": "[2]; 30 mg oral", "value": 5.76, "unit": "h"}, {"measurement": "half-life", "setting": "[2]; 30 mg oral", "value": 29.1, "unit": "h"}, {"measurement": "Vd/F", "setting": "[2]; 30 mg oral", "value": 1320, "unit": "L"}, {"measurement": "AUC(0-inf)", "setting": "[2]; 100 mg oral", "value": 4800, "unit": "ng·h/mL"}, {"measurement": "AUC(0-t)", "setting": "[2]; 100 mg oral", "value": 4360, "unit": "ng·h/mL"}, {"measurement": "Cmax", "setting": "[2]; 100 mg oral", "value": 168, "unit": "ng/mL"}, {"measurement": "Tmax", "setting": "[2]; 100 mg oral", "value": 5, "unit": "h"}, {"measurement": "half-life", "setting": "[2]; 100 mg oral", "value": 54.2, "unit": "h"}, {"measurement": "Vd/F", "setting": "[2]; 100 mg oral", "value": 1710, "unit": "L"}, {"measurement": "AUC(0-inf)", "setting": "[2]; 300 mg oral", "value": 25200, "unit": "ng·h/mL"}, {"measurement": "AUC(0-t)", "setting": "[2]; 300 mg oral", "value": 23100, "unit": "ng·h/mL"}, {"measurement": "Cmax", "setting": "[2]; 300 mg oral", "value": 747, "unit": "ng/mL"}, {"measurement": "Tmax", "setting": "[2]; 300 mg oral", "value": 5, "unit": "h"}, {"measurement": "half-life", "setting": "[2]; 300 mg oral", "value": 48.1, "unit": "h"}, {"measurement": "Vd/F", "setting": "[2]; 300 mg oral", "value": 850, "unit": "L"}, {"measurement": "AUC(0-inf)", "setting": "[2]; 450 mg oral", "value": 43700, "unit": "ng·h/mL"}, {"measurement": "AUC(0-t)", "setting": "[2]; 450 mg oral", "value": 36600, "unit": "ng·h/mL"}, {"measurement": "Cmax", "setting": "[2]; 450 mg oral", "value": 1130, "unit": "ng/mL"}, {"measurement": "Tmax", "setting": "[2]; 450 mg oral", "value": 5.76, "unit": "h"}, {"measurement": "half-life", "setting": "[2]; 450 mg oral", "value": 59.7, "unit": "h"}, {"measurement": "Vd/F", "setting": "[2]; 450 mg oral", "value": 881, "unit": "L"}, {"measurement": "Plasma exposure (Cmax and AUC) versus dose", "setting": "[2]; oral 10-450 mg, humans", "value": "increased super-proportionally with dose"}, {"measurement": "Time at which maximum plasma levels are reached post-dose", "setting": "[2]; oral administration, humans", "value": "approximately 5 hours"}]}]}
